The results in this text go back to PMC10065284, “Protease inhibition, in vitro antibacterial and IFD/MM-GBSA studies of ciprofloxacin-based acetanilides” (PLOS ONE, 2023).

The test addresses T1, serine protease.
T1 construct: purified serine protease, indigenously isolated from B. subtilis sp
Kind of test: casein hydrolysis assay with purified protease, inhibition kinetics. In kind it is biochemical, Bacillus subtilis.

As to `COC(=O)c1cn(C2CC2)c2cc(N3CCN(CC(=O)Nc4ccccc4)CC3)c(F)cc2c1=O` [4a, methyl 1-cyclopropyl-6-fluoro-4-oxo-7-(4-(2-oxo-2-(phenylamino)ethyl)piperazin-1-yl)-1,4-dihydro-quinoline-3-carboxylate], the affinity corresponds to a Ki of 0.1 µM.
